Data taken from paper PMC6271338, “Synthesis and Cytotoxic Evaluation of Alkoxylated Chalcones” (Molecules, 2014).

Tests used:
[1] = system: MCF-7 cells; experiment: In vitro anti-proliferative SRB assay, MCF-7; assay type: cell-based, human; conditions: for IC50: Homo sapiens, MCF7, increasing concentrations up to 30 μM, mean ± SD of at least three independent experiments; for SI (CC50 HMLE/IC50 MCF7) / SI (CC50 L02/IC50 MCF7): selectivity index; for SI (CC50 HMLE/IC50 MCF7): HMLE vs MCF7; for SI (CC50 L02/IC50 MCF7): L02 vs MCF7
[2] = Cytotoxicity (SRB) against non-tumoral HMLE cells; assay type: cell-based, human; conditions: human, HMLE cells (non-tumoral human mammary epithelial cells); increasing concentrations up to 100 μM; mean ± SD of at least three independent experiments; read-out: Normal Human Cell Lines, CC50, HMLE
[3] = system: SW1990 cells; experiment: In vitro anti-proliferative SRB assay, SW1990; assay type: cell-based, human; conditions: for SI (CC50 HMLE/IC50 SW1990) / SI (CC50 L02/IC50 SW1990): selectivity index; for SI (CC50 HMLE/IC50 SW1990): HMLE vs SW1990; for SI (CC50 L02/IC50 SW1990): L02 vs SW1990; for IC50: Homo sapiens, SW1990, increasing concentrations up to 30 μM, mean ± SD of at least three independent experiments
[4] = system: HeLa cells; experiment: In vitro anti-proliferative SRB assay, HeLa; assay type: cell-based, human; conditions: for IC50: Homo sapiens, HeLa, increasing concentrations up to 30 μM, mean ± SD of at least three independent experiments; for SI (CC50 HMLE/IC50 Hela) / SI (CC50 L02/IC50 Hela): selectivity index; for SI (CC50 HMLE/IC50 Hela): HMLE vs HeLa; for SI (CC50 L02/IC50 Hela): L02 vs HeLa
[5] = system: HepG2 cells; experiment: In vitro anti-proliferative SRB assay, HepG2; assay type: cell-based, human; conditions: for IC50: Homo sapiens, HepG2, increasing concentrations up to 30 μM, mean ± SD of at least three independent experiments; for SI (CC50 HMLE/IC50 HepG2) / SI (CC50 L02/IC50 HepG2): selectivity index; for SI (CC50 HMLE/IC50 HepG2): HMLE vs HepG2; for SI (CC50 L02/IC50 HepG2): L02 vs HepG2
[6] = system: A549 cells; experiment: In vitro anti-proliferative SRB assay, A549; assay type: cell-based, human; conditions: for IC50: Homo sapiens, A549, increasing concentrations up to 30 μM, mean ± SD of at least three independent experiments; for SI (CC50 HMLE/IC50 A549) / SI (CC50 L02/IC50 A549): selectivity index; for SI (CC50 HMLE/IC50 A549): HMLE vs A549; for SI (CC50 L02/IC50 A549): L02 vs A549
[7] = Cytotoxicity (SRB) against non-tumoral L02 cells; assay type: cell-based, human; conditions: human, L02 cells (non-tumoral human liver cell line); increasing concentrations up to 100 μM; mean ± SD of at least three independent experiments; read-out: Normal Human Cell Lines, CC50, L02

Compound | IC50 [1] [µM] | SI (CC50 HMLE/IC50 MCF7) [1] | SI (CC50 L02/IC50 MCF7) [1] | CC50 at 48 h [2] [µM] | SI (CC50 HMLE/IC50 SW1990) [3] | SI (CC50 L02/IC50 SW1990) [3] | IC50 [4] [µM] | SI (CC50 HMLE/IC50 Hela) [4] | SI (CC50 L02/IC50 Hela) [4] | melting point [°C] | IC50 [5] [µM] | SI (CC50 HMLE/IC50 HepG2) [5] | SI (CC50 L02/IC50 HepG2) [5] | IC50 [6] [µM] | SI (CC50 HMLE/IC50 A549) [6] | SI (CC50 L02/IC50 A549) [6] | CC50 at 48 h [7] [µM] | IC50 [3] [µM]
CCOc1cc(OC)ccc1C(=O)/C=C/c1c(OC)cccc1OC [b17, (E)-1-(2-Ethoxy-4-methoxyphenyl)-3-(2,6-dimethoxyphenyl)prop-2-en-1-one] | 7.74 ± 0.1 | 1.2 | 1.4 | 9.03 ± 0.8 | 0.8 | 1.0 | 8.54 ± 0.14 | 1.1 | 1.3 | 98.7 to 100.2 | 12 ± 0.23 | 0.8 | 0.9 | 9.33 ± 0.3 | 1.0 | 1.2 | 10.9 ± 0.42 | –
COc1cccc(OC)c1/C=C/C(=O)c1ccc(C)c(C)c1 [b5, (E)-1-(3,4-Dimethylphenyl)-3-(2,6-dimethoxyphenyl)prop-2-en-1-one] | 30.31 ± 0.29 | 0.5 | 0.8 | 15.7 ± 0.76 | <0.5 | <0.8 | 20.3 ± 1.01 | 0.8 | 1.2 | 98.9 to 101.1 | 26.8 ± 0.3 | 0.6 | 0.9 | > 30 | <0.5 | <0.8 | 25.2 ± 2.71 | > 30
COc1cccc(OC)c1/C=C/C(=O)c1ccccc1O [b24, (E)-1-(2-Hydroxyphenyl)-3-(2,6-dimethoxyphenyl)prop-2-en-1-one] | 10.7 ± 0.38 | 0.8 | 2.3 | 8.96 ± 0.44 | 0.6 | 1.5 | 13.4 ± 0.74 | 0.7 | 1.8 | 114.2 to 115.9 | 7.77 ± 0.08 | 1.2 | 3.1 | 8.64 ± 0.31 | 1.0 | 2.8 | 24.2 ± 2.71 | 16.1 ± 0.32
COc1cccc(OC)c1/C=C/C(=O)c1ccc(F)cc1 [b33, (E)-1-(4-Fluorophenyl)-3-(2,6-dimethoxyphenyl)prop-2-en-1-one] | 32.2 ± 1.34 | 0.4 | 2.0 | 12.7 ± 2.35 | <0.4 | <2.1 | 17.4 ± 0.39 | 0.7 | 3.7 | 108.2 to 109.6 | 24.6 ± 0.36 | 0.5 | 2.6 | > 30 | <0.4 | <2.1 | 63.9 ± 13.8 | > 30
COc1ccc(C(=O)/C=C/c2c(OC)cccc2OC)c(OCc2ccccc2)c1 [b14, (E)-1-(2-(Benzyloxy)-4-methoxyphenyl)-3-(2,6-dimethoxyphenyl)prop-2-en-1-one] | > 30 | – | – | > 100 | – | – | > 30 | – | – | 82.2 to 83.6 | > 30 | – | – | > 30 | – | – | > 100 | > 30
COc1cccc(OC)c1/C=C/C(=O)c1ccc(C)cc1 [b4, (E)-1-(4-Methylphenyl)-3-(2,6-dimethoxyphenyl)prop-2-en-1-one] | 25.44 ± 0.15 | 0.5 | 2.3 | 13.8 ± 1.69 | <0.5 | <2.0 | 18.6 ± 0.36 | 0.7 | 3.2 | 82.7 to 84.5 | 19.5 ± 1.28 | 0.7 | 3.1 | 22.1 ± 0.6 | 0.6 | 2.7 | 59.6 ± 5.56 | > 30
COc1ccc(C(=O)/C=C/c2c(OC)cccc2OC)cc1OC [b19, (E)-1-(3,4-Dimethoxyphenyl)-3-(2,6-dimethoxyphenyl)prop-2-en-1-one] | 19.7 ± 0.2 | 0.5 | 2.0 | 10.5 ± 0.41 | 0.8 | 2.9 | 9.26 ± 0.04 | 1.1 | 4.3 | 120.5 to 122.7 | 7.12 ± 0.67 | 1.5 | 5.6 | 13.6 ± 0.85 | 0.8 | 2.9 | 39.8 ± 6.32 | 13.84 ± 0.06
COc1cccc(C(=O)/C=C/c2c(OC)cccc2OC)c1 [b7, (E)-1-(3-Methoxyphenyl)-3-(2,6-dimethoxyphenyl)prop-2-en-1-one] | 6.37 ± 0.05 | 1.3 | 2.8 | 8.14 ± 0.53 | 0.5 | 1.2 | 9.98 ± 0.37 | 0.8 | 1.8 | 93.5 to 95.6 | 6.97 ± 0.55 | 1.2 | 2.6 | 14 ± 0.19 | 0.6 | 1.3 | 18.1 ± 5.82 | 15.6
